For 128 compounds, outcome and Potency results are on record in PubChem BioAssay AID1188 (EPA DSSTox, 2008).

Activity calls are given as the source filed them.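 How the source made its calls: active means a concentration killing half the fathead minnows in the acute test was determined; inconclusive means some fish died but not half at top dose; inactive means no fish died even at top dose.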

The data set deals with Fathead minnow (Pimephales promelas) acute toxicity, lethality. In words: DSSTox (EPAFHM) EPA Fathead Minnow Acute Toxicity. The method, boiled down: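 Activity score is an integer 1–100 scaling of log10(1/LC50 in mmol) between dataset minimum and maximum, highest potency = 100. Underlying LC50 values (mg) come from the U.S. EPA MED database.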
With `CCCCCCCC/C=C\CCCCCCCCO`, the outcome is “inactive; moa not determined either due to lack of toxicity at saturation or late test res”.

For the compound `CCCCCCOc1ccc(C=O)cc1OC`, the Potency is 11.3 µM.

`CCCSCCC`: the Potency was 184 µM.

Consider `N#Cc1cc(Cl)ccc1N`, for which the Potency was 187 µM.

Regarding `CCN(CCO)c1cccc(C)c1`, the Potency is 295 µM.

Consider `C1N2CN3CN1CN(C2)C3`, for which the Potency was 355000 µM.

With `O=c1cc[nH]c(=O)[nH]1`, the outcome is “inactive; moa not determined either due to lack of toxicity at saturation or late test res”.

Turning to `CCc1ccccn1`, the Potency is 3860 µM.

On to `CCN1C(=O)CC(=O)N(CC)C1=S`, for which the Potency was 22500 µM.

`CN(C)C(=O)Nc1ccc(Cl)c(Cl)c1`: the Potency is 60.9 µM.

Turning to `O=C1C2CC3CC(C2)CC1C3`, the Potency was 405 µM.

In the case of `c1ccc(-c2ccncc2)cc1`, the Potency is 104 µM.

For `COc1cc(OC)c(OC)cc1C=O`, the Potency is 252 µM.

Turning to `CC1(C)[C@H]2CC[C@]1(C)C(=O)C2`, the Potency is 112 µM.

Consider `CNc1ccc(F)cc1`, for which the Potency is 307 µM.

Consider `O=Cc1ccccc1[N+](=O)[O-]`, for which the Potency is 95.3 µM.

In the case of `CCCCCCCCCN`, the Potency is 15 µM.

For the compound `Oc1cccnc1Br`, the Potency is 2700 µM.

On to `CC(C)CO`, for which the Potency was 19300 µM.

As for `O=[N+]([O-])c1cccc(P(=O)(c2cccc([N+](=O)[O-])c2)c2cccc([N+](=O)[O-])c2)c1`, the outcome was “inactive; moa not determined either due to lack of toxicity at saturation or late test res”.

Turning to `CCCCCCCCBr`, the Potency was 4.34 µM.

In the case of `CCOc1cc(C=O)ccc1O`, the Potency is 527 µM.

`CCCCC(C)=O`: the Potency was 4270 µM.

Turning to `Cc1cc(C(C)(C)C)c(O)c(C(C)(C)C)c1`, the Potency is 1.65 µM.

`COc1ccc(C(C)=O)c(OC)c1OC`: the Potency is 947 µM.

As for `Nc1ccc(Br)cn1`, the Potency was 1020 µM.

For the compound `CCCCCC(C)=O`, the Potency was 1150 µM.

Turning to `CCOC(=O)CCCCC(=O)OCC`, the Potency was 89.9 µM.

On to `NCCN`, for which the Potency is 3660 µM.

Turning to `CCCCCCCCCCCCc1ccc(N)cc1`, the outcome was “inactive; moa not determined either due to lack of toxicity at saturation or late test res”.

`O=[N+]([O-])c1ccccc1`: the Potency was 967 µM.

Consider `Clc1ccccc1`, for which the Potency was 150 µM.

With `CCCCCCCCCCN`, the Potency was 6.55 µM.

Turning to `CCNc1cccc(C)c1`, the Potency is 366 µM.

For the compound `CC(C)c1ccc2c(c1)CC[C@H]1[C@](C)(C(=O)O)CCC[C@]21C`, the Potency was 6.99 µM.

In the case of `C[N+](C)(C)C`, the Potency was 4220 µM.

As to `C(/C=C/c1ccccc1)=C\c1ccccc1`, the outcome is “inactive; moa not determined either due to lack of toxicity at saturation or late test res”.

Regarding `NC(=O)c1cccc(Br)c1`, the Potency is 463 µM.

As to `Cc1cc(Cl)nc(N)n1`, the Potency is 982 µM.

As to `O=Cc1cc(O)ccc1[N+](=O)[O-]`, the Potency is 251 µM.

Regarding `CC(=O)c1cccc(N)c1`, the Potency is 2830 µM.

As for `Nc1cccc(OCc2ccccc2)c1`, the Potency is 45.9 µM.

In the case of `COc1cc(C=O)ccc1O`, the Potency is 551 µM.

As to `Nc1ccccc1C(=O)c1ccc(Cl)cc1`, the Potency is 9.15 µM.

As to `O=[N+]([O-])c1cccc(Cl)c1`, the Potency was 119 µM.

In the case of `COc1cccc(O)c1`, the Potency is 596 µM.

With `Cc1cccc(OP(=O)(Oc2cccc(C)c2C)Oc2cccc(C)c2C)c1C`, the outcome is “inactive; moa not determined either due to lack of toxicity at saturation or late test res”.

Turning to `CC(=O)c1ccncc1`, the Potency was 1390 µM.

Take `CC(C)(O)CCc1ccccc1`: the Potency was 404 µM.

On to `Oc1c(Cl)cc(Cl)c(Cl)c1Cc1c(O)c(Cl)cc(Cl)c1Cl`, for which the Potency is 0.0516 µM.

Regarding `Oc1cccnc1Cl`, the Potency was 4800 µM.

As to `c1ccc(-c2nc(-c3ccccc3)c(-c3ccccc3)[nH]2)cc1`, the outcome was “inactive; moa not determined either due to lack of toxicity at saturation or late test res”.

As for `CC[N+](CC)(CC)Cc1ccccc1`, the Potency was 707 µM.

Turning to `Oc1ccccc1Cl`, the Potency is 88.7 µM.

`c1ccc(SSc2ccccc2)cc1`: the Potency is 0.504 µM.

As for `O=[N+]([O-])c1ccc(F)cc1`, the Potency was 201 µM.

Consider `CC(=O)CCC=C(C)C`, for which the Potency was 679 µM.

`CCCCOC(=O)/C=C/C(=O)OCCCC`: the Potency was 2.76 µM.

As to `CCCCCCCO`, the Potency is 297 µM.

On to `O=[N+]([O-])c1ccc(O)cc1`, for which the Potency was 322 µM.

`C=C(C)C(=O)OCC1CCCO1` (stereo not drawn): the Potency is 204 µM.

`CCOC(=O)C(Cc1ccccc1)C(=O)OCC`: the Potency is 21.7 µM.

With `CCO`, the Potency is 319000 µM.

Consider `CCCCCC(=O)O`, for which the Potency was 2760 µM.

On to `CCCCCCCN`, for which the Potency is 189 µM.

In the case of `Cc1ccc([N+](=O)[O-])c(OP(=O)(Oc2cc(C)ccc2[N+](=O)[O-])Oc2cc(C)ccc2[N+](=O)[O-])c1`, the outcome is “inactive; moa not determined either due to lack of toxicity at saturation or late test res”.

Turning to `CCC(C)n1c(=O)[nH]c(C)c(Br)c1=O` (stereo not drawn), the Potency is 712 µM.

For `O=C(Oc1ccccc1)c1ccccc1O`, the Potency was 5.51 µM.

For the compound `COc1cc(Cl)c(Cl)cc1O`, the Potency is 23.2 µM.

With `Oc1c(Cl)cc(Cl)c(Cl)c1Cl`, the Potency was 4.44 µM.

Regarding `COCCN`, the Potency is 6980 µM.

In the case of `CCCCC(CC)CO` (stereo not drawn), the Potency is 217 µM.

With `CCCCCN`, the Potency is 2030 µM.

As for `Cc1ccc(S(=O)(=O)n2ccnc2)cc1`, the Potency is 188 µM.

As for `O=C(c1ccccc1)c1ccncc1`, the Potency is 562 µM.

In the case of `C=C(CCl)CCl`, the Potency is 1.52 µM.

Regarding `O=P(Oc1c(Cl)cccc1Cl)(Oc1c(Cl)cccc1Cl)Oc1c(Cl)cccc1Cl`, the outcome was “inactive; moa not determined either due to lack of toxicity at saturation or late test res”.

For `NC(=O)c1ccc(Cl)cc1Cl`, the Potency is 503 µM.

On to `NC(=O)c1ccccc1N`, for which the Potency is 2900 µM.

For `CCCBr`, the Potency was 547 µM.

With `CN1CCNCC1`, the Potency is 23000 µM.

As for `C1OCOCO1`, the Potency was 66100 µM.

`O=C(NC1CCCCC1)OCCCl`: the Potency was 170 µM.

For the compound `ClCC(Cl)Cl`, the Potency is 612 µM.

As to `CCOc1ccc(C=O)cc1`, the Potency is 187 µM.

Consider `CC(=O)CC(C)=O`, for which the Potency is 1350 µM.

Regarding `O=C(O)c1cccc(C(=O)O)n1`, the Potency is 1930 µM.

In the case of `Nc1ccccc1`, the Potency is 1130 µM.

Turning to `COc1cc(O)c(C=O)c(OC)c1`, the Potency was 14.7 µM.

Turning to `C#CC(C)(O)CCC(C)C` (stereo not drawn), the Potency is 349 µM.

For the compound `O=C1c2ccccc2C(=O)c2ccccc21`, the outcome is “inactive; moa not determined either due to lack of toxicity at saturation or late test res”.

As for `Cc1ccccc1O`, the Potency is 129 µM.

For the compound `CC(C)(C)c1ccc(C(N)=O)cc1`, the Potency was 180 µM.

Take `Oc1c(Br)cc(Br)cc1Br`: the Potency was 19.8 µM.

`OCCNCCO`: the Potency is 44800 µM.

Take `CCOP(=S)(OCC)SCSC(C)(C)C`: the Potency is 0.0461 µM.

Regarding `CC(C)=C1C=C2CC[C@@H]3[C@](C)(CCC[C@@]3(C)C(=O)O)[C@H]2CC1`, the Potency is 4.93 µM.

On to `C1CN2CCN1CC2`, for which the Potency is 15400 µM.

Take `Cc1ccc(C)c(O)c1C`: the Potency was 60.2 µM.

Take `Brc1ccsc1`: the Potency was 38 µM.

`CCCCCC`: the Potency was 29 µM.

Regarding `CCCCCCCCCCCC#N`, the Potency was 2.37 µM.

With `CCC(C)N` (stereo not drawn), the Potency is 3760 µM.

Turning to `CC(C)[C@@H]1CC[C@@H](C)C[C@H]1O`, the Potency was 121 µM.

Regarding `ClCCCCCCl`, the Potency is 179 µM.

As to `c1ccc2c(c1)CCO2`, the Potency was 680 µM.

On to `Cc1ccccc1`, for which the Potency was 368 µM.

As to `COc1ccc(OC)cc1`, the Potency is 847 µM.

`Nc1ccccc1Cl`: the Potency is 45 µM.

As for `Nc1ccc(Cl)c(Cl)c1Cl`, the Potency is 18.5 µM.

For `ClCCN1CCCC1`, the Potency was 900 µM.

As to `c1cc2c3c(cccc3c1)CC2`, the Potency is 11.2 µM.

With `COC(C)=O`, the Potency was 4820 µM.

For the compound `Oc1ccc(N=Nc2ccccc2)cc1`, the Potency is 6 µM.

For `CCCCCCC(C)=O`, the Potency is 281 µM.

With `O=Cc1ccc(Cl)cc1`, the Potency was 15.6 µM.

`CCOC(=O)c1ccc(N)cc1`: the Potency was 216 µM.

Turning to `Cc1ccc(N(C)C)cc1`, the Potency was 362 µM.

Consider `C=CC(=O)OCCCCCCCCCCCC`, for which the outcome is “inactive; moa not determined either due to lack of toxicity at saturation or late test res”.

For `CC(=O)C(C)C`, the Potency was 10000 µM.

Turning to `O=Cc1ccc([N+](=O)[O-])cc1`, the Potency is 66.8 µM.

With `c1ccc2ncccc2c1`, the Potency was 602 µM.

With `CCOC(=O)CC(=O)OCC`, the Potency was 91.8 µM.

In the case of `IC(I)I`, the Potency is 7.42 µM.

Turning to `BrC(Br)c1ccccc1C(Br)Br`, the Potency was 1.04 µM.

For `CNC(=O)O/N=C/C(C)(C)SC`, the Potency is 4.52 µM.

With `ClC(Cl)=C(Cl)c1c(Cl)c(Cl)c(Cl)c(Cl)c1Cl`, the outcome is “inactive; moa not determined either due to lack of toxicity at saturation or late test res”.

`C#CC(C)(O)C(C)C` (stereo not drawn): the Potency is 1830 µM.
